Measured values reported in PubChem BioAssay AID1919003 (Molecular Pharmacology Branch, DTP, NCI, 2023).
pIC50: −log10 of the molar value.

Tested on: 786-0 complex spheroids with HUVEC/MSC, growth % test/control
Assay: Anticancer human tumor 786-0 cell line growth inhibition [AhR];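 further: compound exposure lasted seven days before the read-out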
Conditions: for pIC50: curve of first compound; for viability, T/C: stronger effect = lower value; active means viability on the fitted dose curve at most 10% of control; inactive means the rest
Outline: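 Spheroids combined tumor cells with HUVEC endothelial cells and human MSCs as stroma. AhR antagonists were paired with standard or investigational drugs, each dosed in half-log steps down from near clinical Cmax, or from 10 microM where Cmax was unknown.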

[1] = second compound 0.1 µM, first compound 0.000949 µM
[2] = second compound 0.1 µM, first compound 0.003 µM
[3] = second compound 0.1 µM, first compound 0.00949 µM
[4] = second compound 0.1 µM, first compound 0.03 µM
[5] = second compound 0.1 µM, first compound 0.0949 µM
[6] = second compound 0.1 µM, first compound 0.3 µM
[7] = second compound 0.316 µM, first compound 0.000949 µM
[8] = second compound 0.316 µM, first compound 0.003 µM
[9] = second compound 0.316 µM, first compound 0.00949 µM
[10] = second compound 0.316 µM, first compound 0.03 µM
[11] = second compound 0.316 µM, first compound 0.0949 µM
[12] = second compound 0.316 µM, first compound 0.3 µM
[13] = second compound 1 µM, first compound 0.000949 µM
[14] = second compound 1 µM, first compound 0.003 µM
[15] = second compound 1 µM, first compound 0.00949 µM
[16] = second compound 1 µM, first compound 0.03 µM
[17] = second compound 1 µM, first compound 0.0949 µM
[18] = second compound 1 µM, first compound 0.3 µM
[19] = second compound 3.16 µM, first compound 0.000949 µM
[20] = second compound 3.16 µM, first compound 0.003 µM
[21] = second compound 3.16 µM, first compound 0.00949 µM
[22] = second compound 3.16 µM, first compound 0.03 µM
[23] = second compound 3.16 µM, first compound 0.0949 µM
[24] = second compound 3.16 µM, first compound 0.3 µM
[25] = second compound 10 µM, first compound 0.000949 µM
[26] = second compound 10 µM, first compound 0.003 µM
[27] = second compound 10 µM, first compound 0.00949 µM
[28] = second compound 10 µM, first compound 0.03 µM
[29] = second compound 10 µM, first compound 0.0949 µM
[30] = second compound 10 µM, first compound 0.3 µM
[31] = second compound 0.1 µM, first compound 0.0316 µM
[32] = second compound 0.1 µM, first compound 0.1 µM
[33] = second compound 0.1 µM, first compound 0.316 µM
[34] = second compound 0.1 µM, first compound 1 µM
[35] = second compound 0.1 µM, first compound 3.16 µM
[36] = second compound 0.1 µM, first compound 10 µM
[37] = second compound 0.316 µM, first compound 0.0316 µM
[38] = second compound 0.316 µM, first compound 0.1 µM
[39] = second compound 0.316 µM, first compound 0.316 µM
[40] = second compound 0.316 µM, first compound 1 µM
[41] = second compound 0.316 µM, first compound 3.16 µM
[42] = second compound 0.316 µM, first compound 10 µM
[43] = second compound 1 µM, first compound 0.0316 µM
[44] = second compound 1 µM, first compound 0.1 µM
[45] = second compound 1 µM, first compound 0.316 µM
[46] = second compound 1 µM, first compound 1 µM
[47] = second compound 1 µM, first compound 3.16 µM
[48] = second compound 1 µM, first compound 10 µM
[49] = second compound 3.16 µM, first compound 0.0316 µM
[50] = second compound 3.16 µM, first compound 0.1 µM
[51] = second compound 3.16 µM, first compound 0.316 µM
[52] = second compound 3.16 µM, first compound 1 µM
[53] = second compound 3.16 µM, first compound 3.16 µM
[54] = second compound 3.16 µM, first compound 10 µM
[55] = second compound 10 µM, first compound 0.0316 µM
[56] = second compound 10 µM, first compound 0.1 µM
[57] = second compound 10 µM, first compound 0.316 µM
[58] = second compound 10 µM, first compound 1 µM
[59] = second compound 10 µM, first compound 3.16 µM
[60] = second compound 10 µM, first compound 10 µM

CC(C)CC(NC(=O)C(Cc1ccccc1)NC(=O)c1cnccn1)B(O)O (stereo not given) + Cc1cncc(-c2nc(NCCc3c[nH]c4ccccc34)c3ncn(C(C)C)c3n2)c1
7.75: pIC50 (second compound 0.1 µM)
inactive: viability, T/C [1] 136% | viability, T/C [2] 119% | viability, T/C [3] 103% | viability, T/C [7] 127% | viability, T/C [8] 120% | viability, T/C [9] 118% | viability, T/C [13] 102% | viability, T/C [14] 110% | viability, T/C [15] 96.9% | viability, T/C [19] 70.7% | viability, T/C [20] 69.3% | viability, T/C [21] 47.8% | viability, T/C [25] 10.2%
active: viability, T/C [4] 5.33% | viability, T/C [5] 0.52% | viability, T/C [6] 0.46% | viability, T/C [10] 3.15% | viability, T/C [11] 0.85% | viability, T/C [12] 0.37% | viability, T/C [16] 4.16% | viability, T/C [17] 0.6% | viability, T/C [18] 0.7% | viability, T/C [22] 1.63% | viability, T/C [23] 0.28% | viability, T/C [24] 0.43% | viability, T/C [26] 16% | viability, T/C [27] 2.59% | viability, T/C [28] 0.18% | viability, T/C [29] 0.17% | viability, T/C [30] 0.24%
> 9.02: pIC50 (second compound 10 µM)
7.77: pIC50 (second compound 1 µM)
7.73: pIC50 (second compound 0.316 µM)
8.07: pIC50 (second compound 3.16 µM)

CCc1c2c(nc3ccc(O)cc13)-c1cc3c(c(=O)n1C2)COC(=O)[C@]3(O)CC + Cc1cncc(-c2nc(NCCc3c[nH]c4ccccc34)c3ncn(C(C)C)c3n2)c1
active: viability, T/C [4] 5.21% | viability, T/C [5] 2.42% | viability, T/C [6] 2.24% | viability, T/C [10] 6.67% | viability, T/C [11] 3.31% | viability, T/C [12] 2.09% | viability, T/C [16] 5.63% | viability, T/C [17] 2.53% | viability, T/C [18] 3.71% | viability, T/C [21] 4.92% | viability, T/C [22] 2.43% | viability, T/C [23] 1.6% | viability, T/C [24] 1.37% | viability, T/C [25] 1.65% | viability, T/C [26] 0.61% | viability, T/C [27] 0.43% | viability, T/C [28] 0.38% | viability, T/C [29] 0.28% | viability, T/C [30] 0.36%
8.22: pIC50 (second compound 0.1 µM) | pIC50 (second compound 0.316 µM)
> 9.02: pIC50 (second compound 10 µM)
8.29: pIC50 (second compound 1 µM)
inactive: viability, T/C [1] 106% | viability, T/C [2] 93.5% | viability, T/C [3] 21.5% | viability, T/C [7] 112% | viability, T/C [8] 95.4% | viability, T/C [9] 21% | viability, T/C [13] 99.5% | viability, T/C [14] 79.5% | viability, T/C [15] 15.4% | viability, T/C [19] 65.7% | viability, T/C [20] 27.2%
8.82: pIC50 (second compound 3.16 µM)

COc1cc(Nc2ncc3c(n2)-c2ccc(Cl)cc2C(c2c(F)cccc2OC)=NC3)ccc1C(=O)O + Cc1cncc(-c2nc(NCCc3c[nH]c4ccccc34)c3ncn(C(C)C)c3n2)c1
5.18: pIC50 (second compound 1 µM)
> 7.50: pIC50 (second compound 10 µM)
5.11: pIC50 (second compound 3.16 µM)
5.16: pIC50 (second compound 0.1 µM)
inactive: viability, T/C [31] 115% | viability, T/C [32] 115% | viability, T/C [33] 155% | viability, T/C [34] 104% | viability, T/C [35] 75.5% | viability, T/C [36] 38.2% | viability, T/C [37] 121% | viability, T/C [38] 121% | viability, T/C [39] 144% | viability, T/C [40] 123% | viability, T/C [41] 69% | viability, T/C [42] 37.8% | viability, T/C [43] 115% | viability, T/C [44] 125% | viability, T/C [45] 152% | viability, T/C [46] 114% | viability, T/C [47] 71.2% | viability, T/C [48] 37.9% | viability, T/C [49] 63.3% | viability, T/C [50] 68.3% | viability, T/C [51] 94.2% | viability, T/C [52] 92.3% | viability, T/C [53] 70.1% | viability, T/C [54] 44.4%
5.20: pIC50 (second compound 0.316 µM)
active: viability, T/C [55] 4.3% | viability, T/C [56] 1.69% | viability, T/C [57] 2.04% | viability, T/C [58] 3.84% | viability, T/C [59] 4.27% | viability, T/C [60] 16.9%

Nc1ccccc1NC(=O)c1ccc(CNC(=O)OCc2cccnc2)cc1 + Cc1cncc(-c2nc(NCCc3c[nH]c4ccccc34)c3ncn(C(C)C)c3n2)c1
> 7.50: pIC50 (second compound 10 µM)
5.14: pIC50 (second compound 0.1 µM)
inactive: viability, T/C [31] 119% | viability, T/C [32] 114% | viability, T/C [33] 125% | viability, T/C [34] 115% | viability, T/C [35] 106% | viability, T/C [36] 27.8% | viability, T/C [37] 118% | viability, T/C [38] 114% | viability, T/C [39] 128% | viability, T/C [40] 126% | viability, T/C [41] 115% | viability, T/C [42] 32% | viability, T/C [43] 106% | viability, T/C [44] 113% | viability, T/C [45] 121% | viability, T/C [46] 108% | viability, T/C [47] 97% | viability, T/C [48] 25.6% | viability, T/C [49] 68.1% | viability, T/C [50] 71.4% | viability, T/C [51] 65.4% | viability, T/C [52] 60.5% | viability, T/C [53] 69.2% | viability, T/C [54] 15.2%
active: viability, T/C [55] 8.31% | viability, T/C [56] 9.06% | viability, T/C [57] 3.52% | viability, T/C [58] 0.75% | viability, T/C [59] 0.39% | viability, T/C [60] 0.77%
5.11: pIC50 (second compound 0.316 µM)
5.17: pIC50 (second compound 1 µM)
5.34: pIC50 (second compound 3.16 µM)

O=C(C=Cc1cccc(S(=O)(=O)Nc2ccccc2)c1)NO + Cc1cncc(-c2nc(NCCc3c[nH]c4ccccc34)c3ncn(C(C)C)c3n2)c1
5.15: pIC50 (second compound 0.1 µM)
active: viability, T/C [56] 8.02% | viability, T/C [57] 5.17% | viability, T/C [58] 0.6% | viability, T/C [59] 2.92% | viability, T/C [60] 1.45%
5.11: pIC50 (second compound 0.316 µM)
> 7.50: pIC50 (second compound 10 µM)
inactive: viability, T/C [31] 120% | viability, T/C [32] 113% | viability, T/C [33] 112% | viability, T/C [34] 119% | viability, T/C [35] 103% | viability, T/C [36] 26.5% | viability, T/C [37] 113% | viability, T/C [38] 118% | viability, T/C [39] 113% | viability, T/C [40] 113% | viability, T/C [41] 112% | viability, T/C [42] 31.4% | viability, T/C [43] 113% | viability, T/C [44] 111% | viability, T/C [45] 106% | viability, T/C [46] 106% | viability, T/C [47] 96.7% | viability, T/C [48] 22.4% | viability, T/C [49] 69.2% | viability, T/C [50] 68.2% | viability, T/C [51] 59.4% | viability, T/C [52] 53.7% | viability, T/C [53] 45% | viability, T/C [54] 11.8% | viability, T/C [55] 13.8%
5.19: pIC50 (second compound 1 µM)
5.80: pIC50 (second compound 3.16 µM)

O=C(c1cc(Cc2n[nH]c(=O)c3ccccc23)ccc1F)N1CCN(C(=O)C2CC2)CC1 + Cc1cncc(-c2nc(NCCc3c[nH]c4ccccc34)c3ncn(C(C)C)c3n2)c1
< 5.00: pIC50 (second compound 0.1 µM) | pIC50 (second compound 0.316 µM) | pIC50 (second compound 1 µM) | pIC50 (second compound 3.16 µM)
> 7.50: pIC50 (second compound 10 µM)
inactive: viability, T/C [31] 125% | viability, T/C [32] 119% | viability, T/C [33] 133% | viability, T/C [34] 125% | viability, T/C [35] 120% | viability, T/C [36] 131% | viability, T/C [37] 115% | viability, T/C [38] 126% | viability, T/C [39] 123% | viability, T/C [40] 126% | viability, T/C [41] 128% | viability, T/C [42] 120% | viability, T/C [43] 112% | viability, T/C [44] 123% | viability, T/C [45] 112% | viability, T/C [46] 112% | viability, T/C [47] 121% | viability, T/C [48] 108% | viability, T/C [49] 80.2% | viability, T/C [50] 82.3% | viability, T/C [51] 82.8% | viability, T/C [52] 85.1% | viability, T/C [53] 79.3% | viability, T/C [54] 77.9% | viability, T/C [55] 10.6% | viability, T/C [56] 18% | viability, T/C [57] 9.64% | viability, T/C [58] 16.9% | viability, T/C [59] 15.3% | viability, T/C [60] 13%
